Patent US8865748B2, “Compounds and compositions for stabilizing hypoxia inducible factor-2 alpha as a method for treating cancer” (Akebia Therapeutics Inc., priority 2011, dated 2014)

Experiments:
[1] = test system: VEGF mRNA; test: VEGF mRNA expression in wild type murine embryonic fibroblasts (quantitative PCR); format: cell-based; conditions: hypoxic conditions (1% O2); 1, 10 and 100 μM; vs. hypoxia control; FIG. 1A
Procedure: Total RNA was isolated from tissues and cells by using TRIzol™ Reagent (Invitrogen) and the RNeasy kit (Qiagen), respectively. 1 μg RNA was used for reverse transcription using SuperScript II First-Strand Synthersis System (Invitrogen). cDNA's were amplified in a SYR Green or TaqMan Universal Master Mix (Applied Biosystems). Quantitative PCR (qPCR) was performed on ABI Prism 7700 sequence detection system. PCR conditions are: 10 min at 95° C., 40 cycles of 15 seconds at 95° C. and 1 minute at 60° C. The relative amount of mRNA was calculated after normalization to β-actin.
Cells were cultured in DMEM (#11965-092, Invitrogen) supplemented with 10% fetal bovine serum (Invitrogen), 100 U/mL penicillin and […] streptomycin. For glucose deprivation, DMEM without glucose (#11966-025, Invitrogen) was used.
Mouse embryonic fibroblasts (MEFs) were isolated from E12.5 embryos and immortalized by stable transfection with SV40 large T antigen.

[2] = test system: endothelial cell marker CD31; test: Tumor vascularity by CD31 immunohistochemistry in melanoma-bearing mice; format: in vivo; conditions: mice treated with the control antibody; FIG. 14B; p=0.022
[3] = test system: sVEGFR-1; test: sVEGFR-1 transcription in bone marrow-derived macrophages from LysMcre control and HIF-2α^flox/flox/LysMcre mice; format: cell-based; conditions: FIG. 11F
Excerpt: HIF-2α^flox/flox mice (originally developed by Dr. Celeste Simon, University of Pennsylvania) and LysMcre recombinase mice (originally developed by Irmgard Foerster, University of Duesseldorf) (both purchased from The Jackson Laboratory, Bar Harbor, Me.) were crossed to generate mice homozygous for both LysMcre and the floxed HIF-2α allele. LysMcre recombinase mice, which express no floxed alleles, were used as controls. Deletion of HIF-2α in HIF-2α^flox/flox/LysMcre macrophages, but not the LysMcre control macrophages, was confirmed at the transcript level by real-time PCR.
To generate bone marrow-derived macrophages (BDMs), femoral bone marrow was isolated and progenitor cells were plated in RPMI-1640 supplemented with 10% FBS, 1% PSA, 10 μg/mL of polymyxin B, and 20 ng/mL of recombinant murine M-CSF. Cells were cultured for 5 days with the addition of fresh M-CSF every other day. […]
Human monocytes were left untreated or were stimulated with 100 ng/mL GM-CSF at normoxia or at 0.5% O2. […] Data were analyzed according to the comparative threshold method and normalized against the β-actin internal control transcript. Results are semi-quantitative and represent the fold difference in transcript levels in a particular sample as compared with levels in untreated cells from the same donor. […]

[4] = test system: Pmel17 mRNA; test: Evaluation of lung metastases (Pmel17 mRNA, nested PCR) in B16F10 tumor-bearing mice; format: in vivo; conditions: FIG. 5; stabilizer I.P., GM-CSF I.T.; vs. vehicle control
Procedure: Lung metastases were evaluated by detection of mRNA for melanocyte-specific proteins within the lungs of tumor-bearing mice. B16F10 tumor-bearing mice were treated with GM-CSF and/or the disclosed HIF-2α stabilizer, as depicted in FIG. 3. At the time of sacrifice, lungs were excised and flash-frozen in liquid nitrogen. Frozen lungs were homogenized in liquid nitrogen and the pulverized material was dissolved in TRIzol™ reagent (Invitrogen). […] The melanocyte-specific Pmel17 was detected by nested PCR using a modification of the protocol described by Tsukamoto et al. For the initial reaction, 30 cycles of PCR were carried out (95° C. for 1 minute, 58° C. for 1 min, 72° C. for 1 min) in a 20 μL reaction volume containing 2 μL of cDNA. […] Data were analyzed according to the comparative threshold method and normalized against the GAPDH internal control transcript. Results are semi-quantitative and represent the fold difference in transcript levels in vehicle-treated control mice as compared with levels in mice treated with the disclosed HIF-2α stabilizer and/or GM-CSF.
Lung metastases were evaluated by detection of mRNA for melanocyte-specific proteins within the lungs of tumor-bearing mice. […] Data were analyzed according to the comparative threshold method and normalized against the β-actin internal control transcript. […]

O=C(O)CNC(=O)c1ncc(-c2cccc(F)c2)cc1O [disclosed HIF-2α stabilizer, {[5-(3-Fluorophenyl)-3-hydroxypyridine-2-carbonyl]amino}acetic acid]
VEGF mRNA (relative amount) [1]: dramatic reduction | tumor vascularity (CD31) [2]: decreased tumor vascularity | sVEGFR-1 transcription ([3]; HIF-2α-deficient macrophages, p=0.881): not | sVEGFR-1 transcription ([3]; control macrophages, p=0.036): induced | relative metastasis to the lung as measured by Pmel17 mRNA expression [4]: reduced metastasis
